O=C(/C=C/C=C/c1ccc2c(c1)OCO2)N1CCCCC1
solubility (mole fraction)
Conditions | 278.15 K | 283.15 K | 288.15 K | 293.15 K | 298.15 K | 303.15 K | 308.15 K | 313.15 K | 318.15 K
in acetone | 0.00485 | 0.00589 | 0.00706 | 0.0083 | 0.00973 | 0.0113 | 0.0129 | 0.0146 | 0.0166
in ethanol | 0.00413 | 0.00503 | 0.00607 | 0.00714 | 0.00827 | 0.00966 | 0.0111 | 0.0126 | 0.0143
in ethyl acetate | 0.00807 | 0.0104 | 0.0132 | 0.0161 | 0.0194 | 0.0232 | 0.0274 | 0.0321 | 0.0373
